This note sets out measurements from patent publication US8591886B2, “Combination therapies employing GITR binding molecules” (GITR, Inc., priority 2007, dated 2013).

The assay has as its system CT26 cells. The assay is described as follows: CT26 colon carcinoma flank tumor model, Gemzar and 2F8. The following applies: Kaplan-Meier; Gemzar 80 mg/kg Day 15; 2F8 alone 0.4 mg I.P. Days 15, 16 and 17; FIG. 2. The class given is in vivo, Mice. The method, then:
One group of control mice was untreated. The group of mice receiving Gemzar was treated with 80 mg/kg Gemzar on Day 15.
GraphPad Prism 4 software was used to plot Kaplan-Meir survival curves and to confirm the median survival times for the groups.

For `Nc1ccn([C@@H]2O[C@H](CO)[C@@H](O)C2(F)F)c(=O)n1` [Gemzar, gemcitabine], the median survival is 31 days.
